From ChEMBL document CHEMBL4118119, “Development of novel pyridazinone-based adenosine receptor ligands” (Bioorg Med Chem Lett, 2018)

Legend:
[1] = target: T1, Adenosine receptor A2b (Homo sapiens) (UniProt P29275); test: Antagonist activity at recombinant human A2B receptor expressed in CHO cells assessed as inhibition of NECA-stimulated cAMP production at 0.001 to 1 uM by Alpha screen assay relative to control; format: functional, cell-based
T1 sequence (whole entry): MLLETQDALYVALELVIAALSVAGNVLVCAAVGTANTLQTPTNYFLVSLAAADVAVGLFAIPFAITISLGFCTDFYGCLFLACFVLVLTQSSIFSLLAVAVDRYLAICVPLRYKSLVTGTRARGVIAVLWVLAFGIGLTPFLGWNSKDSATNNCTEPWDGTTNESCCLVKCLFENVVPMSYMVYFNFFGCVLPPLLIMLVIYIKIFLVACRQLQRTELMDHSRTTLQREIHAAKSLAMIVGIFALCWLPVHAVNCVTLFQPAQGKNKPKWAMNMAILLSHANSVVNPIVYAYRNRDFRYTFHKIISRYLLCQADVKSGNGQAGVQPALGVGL

Adenosine receptor A2a [2] = target: T2, Adenosine receptor A2a (Homo sapiens, UniProt P29274); test: Displacement of [3H]-ZM241385 from recombinant human A2A receptor expressed in CHO cell membranes at 1 uM measured after 60 mins by scintillation counting method relative to control
[3] = target: T3, Adenosine receptor A1 (Homo sapiens) (UniProt P30542); test: Displacement of [3H]DPCPX from recombinant human A1 receptor expressed in CHO cell membranes at 1 uM measured after 90 mins by scintillation counting method relative to control
T3 sequence (whole entry): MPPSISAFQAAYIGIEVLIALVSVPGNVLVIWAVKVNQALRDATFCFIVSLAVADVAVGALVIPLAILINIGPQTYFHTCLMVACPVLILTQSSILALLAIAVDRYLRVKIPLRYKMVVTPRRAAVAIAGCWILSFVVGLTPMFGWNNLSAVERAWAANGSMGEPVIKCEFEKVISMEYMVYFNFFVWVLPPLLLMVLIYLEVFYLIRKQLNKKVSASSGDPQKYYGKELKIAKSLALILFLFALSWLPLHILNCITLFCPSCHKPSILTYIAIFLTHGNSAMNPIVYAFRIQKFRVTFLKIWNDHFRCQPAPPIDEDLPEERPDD

[4] = target: T4, Adenosine receptor A3 (Homo sapiens) (UniProt P0DMS8); test: Displacement of [125I]-ABMECA from recombinant human A3 receptor expressed in CHO cell membranes at 1 uM measured after 120 mins by scintillation counting method relative to control
T4 sequence (whole entry): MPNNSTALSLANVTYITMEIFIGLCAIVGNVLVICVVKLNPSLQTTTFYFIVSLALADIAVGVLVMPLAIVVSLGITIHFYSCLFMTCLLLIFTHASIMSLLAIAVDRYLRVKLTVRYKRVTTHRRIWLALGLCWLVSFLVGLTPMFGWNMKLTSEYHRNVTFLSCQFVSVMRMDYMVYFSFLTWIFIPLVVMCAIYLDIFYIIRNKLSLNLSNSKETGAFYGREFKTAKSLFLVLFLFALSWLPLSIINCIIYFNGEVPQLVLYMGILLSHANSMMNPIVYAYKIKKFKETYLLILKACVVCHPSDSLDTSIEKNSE

Adenosine receptor A2a [5] = target: T2, Adenosine receptor A2a; test: Displacement of [3H]-ZM241385 from recombinant human A2A receptor expressed in CHO cell membranes measured after 60 mins by scintillation counting method
Adenosine receptor A1 = target: T5, Adenosine receptor A1 (Homo sapiens, UniProt P30542); test: Displacement of [3H]DPCPX from recombinant human A1 receptor expressed in CHO cell membranes measured after 90 mins by scintillation counting method
T5 sequence (P30542 whole entry): T3 sequence (whole entry)

Adenosine receptor A3 = target: T6, Adenosine receptor A3 (Homo sapiens, UniProt P0DMS8); test: Displacement of [125I]-ABMECA from recombinant human A3 receptor expressed in CHO cell membranes measured after 120 mins by scintillation counting method
T6 sequence (P0DMS8 whole entry): T4 sequence (whole entry)

T2 sequence (P29274 whole entry): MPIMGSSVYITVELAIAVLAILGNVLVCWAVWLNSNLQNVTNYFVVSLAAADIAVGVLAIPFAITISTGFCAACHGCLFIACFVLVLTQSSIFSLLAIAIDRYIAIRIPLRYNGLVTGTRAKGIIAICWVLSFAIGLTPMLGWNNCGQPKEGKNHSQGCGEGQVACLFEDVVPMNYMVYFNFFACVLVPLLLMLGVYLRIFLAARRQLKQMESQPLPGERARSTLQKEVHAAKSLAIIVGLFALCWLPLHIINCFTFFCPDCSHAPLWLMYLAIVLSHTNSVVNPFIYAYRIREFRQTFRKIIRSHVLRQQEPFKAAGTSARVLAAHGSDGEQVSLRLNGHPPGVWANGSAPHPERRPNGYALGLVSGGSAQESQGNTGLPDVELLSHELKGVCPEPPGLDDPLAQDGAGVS

Structure (SMILES) | inhibition [1] | inhibition (Adenosine receptor A2a [2]) | inhibition [3] | inhibition [4] | Ki (Adenosine receptor A2a [5]) | Ki (Adenosine receptor A1) | Ki (Adenosine receptor A3)
CCc1nn(CC)c(=O)c2ccsc12 | 1% | 7% | 3% | 14% | – | – | –
Nn1nc(-c2ccccc2)c2sccc2c1=O | 1% | 12% | 16% | 1% | – | – | –
CCc1nn(CC)c(=O)c2cc(-c3ccccc3)sc12 | 1% | – | 4% | 10% | 3140 nM | – | –
Nn1nc(-c2ccccn2)c2sccc2c1=O | 1% | 1% | – | 1% | – | 3720 nM | –
Nn1nc(-c2cccs2)c2sccc2c1=O | 1% | 1% | – | 1% | – | 3540 nM | –
Nn1nc(-c2nccs2)c2sccc2c1=O | 1% | 15% | – | 5% | – | 2870 nM | –
CCn1nc(-c2ccccc2)c2sccc2c1=O | 1% | 17% | – | – | – | 2670 nM | 2590 nM

More lines, in order of falling Ki (Adenosine receptor A1), values ahead:

inhibition [1] | inhibition (Adenosine receptor A2a [2]) | inhibition [3] | inhibition [4] | Ki (Adenosine receptor A2a [5]) | Ki (Adenosine receptor A1) | Ki (Adenosine receptor A3) | Structure (SMILES)
1% | – | – | 1% | 3390 nM | 1150 nM | – | O=c1[nH]nc(-c2nccs2)c2sccc12
1% | 2% | – | 2% | – | 912 nM | – | CC(C)n1nc(-c2ccccn2)c2sccc2c1=O
1% | – | – | 1% | 2870 nM | 782 nM | – | CCn1nc(-c2ccccn2)c2sccc2c1=O
1% | 1% | – | 1% | – | 724 nM | – | CCn1nc(-c2cccs2)c2sccc2c1=O
1% | – | – | – | 2490 nM | 113 nM | 2930 nM | CCn1nc(-c2nccs2)c2sccc2c1=O
